Here are results for one compound from US20180117644A1, “METHOD FOR WASHING SEVOFLURANE STORAGE CONTAINER AND METHOD FOR STORING SEVOFLURANE” (CENTRAL GLASS COMPANY, LIMITED, priority 2016, published 2018).

Read-outs that look alike come from different tables or passages of the source.

A short description of series [1]: Moisture content of liquid sevoflurane stored with dry nitrogen in autoclave (Karl Fischer). It counts as physicochemical. The method, then:
A 1-dm^3 autoclave (SUS304) used as a sevoflurane storage container was filled with dry nitrogen. Liquid sevoflurane (i.e., a sevoflurane product containing 400 ppm of water) (30 g) was added thereto. The autoclave was hermetically closed and stored at room temperature for 1 month. Then, moisture content was measured using a Karl Fischer moisture meter. […] The liquid sevoflurane was stored for another month in the autoclave in the same manner. Then, the moisture content was measured again.

The conditions of series [2]: as disclosed in Patent Literature 5; cited from earlier work.
Series [3] in a line: Degradation of sevoflurane (severe testing) with alumina, gas chromatographic composition. The conditions noted are these: sevoflurane with moisture 6 ppm, alumina 50 mg, 50° C., 64 hours, after third water washing. It counts as physicochemical. The protocol: In Example 1, sevoflurane was treated under conditions more stringent than actual sevoflurane storage conditions so that “polyether” was forcibly generated. Specifically, according to the disclosure of Patent Literature 5, the water content of sevoflurane was adjusted to be lower than that of sevoflurane obtained as a final product (6 ppm). Further, sevoflurane was heated to 50° C. under the presence of oxidized aluminium (alumina) serving as Lewis acid (i.e., a substance that is considered to catalyze sevoflurane degradation in Patent Literature 5). As a result, a portion of sevoflurane was degraded into polyether, resulting in generation of “sevoflurane containing polyether” in the system. It was attempted to wash the obtained “sevoflurane containing polyether” with water.
Sevoflurane (used as a pharmaceutical product) (100 cm^3) was placed in a erlenmeyer flask and cooled to 10° C. in a refrigerator. Then, synthetic zeolite was introduced into the erlenmeyer flask so that the weight ratio of synthetic zeolite:sevoflurane became 1:4. Next, the erlenmeyer flask was allowed to stand still in a refrigerator at 10° C. for 2 hours and 30 minutes for drying of sevoflurane (reduction of water content).
Alumina (50 mg) was placed in a 50-cm^3 brown bottle with a narrow mouth. Sevoflurane having a moisture content of 6 ppm prepared in (1-1) (20 cm^3, 29.9 g) was added thereto.
Next, the cap of the brown bottle with a narrow mouth was closed and the bottle was heated in a thermostatic bath at 50° C. for 64 hours. After heating for 64 hours, the bottle was cooled in a refrigerator (10° C.) for 1 hour.
As the sevoflurane obtained as a result of severe testing in (1-2) contained hydrogen fluoride (HF), water washing (back extraction of HF into an aqueous phase) was conducted for the ease of handling. Specifically, the sevoflurane subjected to severe testing and water (15 cm^3) were introduced into a separatory funnel made of tetrafluoroethylene, stirred for 1 minute, and allowed to stand still for 1 minute, followed by liquid separation. Then, the aqueous phase was collected and pH was checked using a pH test paper.
Meanwhile, after the third water washing, the gas chromatographic composition of the organic phase was detected as follows: sevoflurane: about 87%; polyether 1: 8.4% (84000 ppm); and polyether 2: 4.0% (40000 ppm). In addition, 190 ppm of hexafluoroisopropyl alcohol (HFIP) was detected.

The conditions of series [4]: cited from earlier work.

Compound `FCOC(C(F)(F)F)C(F)(F)F` [sevoflurane, Fluoromethyl-1,1,1,3,3,3-hexafluoroisopropyl ether] returned a moisture content in series [1] (product containing 400 ppm of water, 30 g in 1-dm^3 autoclave (SUS304) filled with dry nitrogen, room temperature, 1 month) of 360 ppm. The compound further yielded a moisture content in series [1] (same storage, another month (2 months in total)) of 350 ppm. The “upper limit of the amount of water that can be mixed with sevoflurane” value in series [2] is “about 1400 ppm”. In series [3], the “gas chromatographic composition of the organic phase: polyether 1” value is given as 8.4%, the “gas chromatographic composition of the organic phase: polyether 2” value is listed as 4.0%, the “gas chromatographic composition of the organic phase: sevoflurane” value is reported as “about 87%” and the “hexafluoroisopropyl alcohol (HFIP) detected in the organic phase” value is listed as 190 ppm. In addition, in series [4] (25° C.), the vapor pressure result is “about 0.026 MPa”. Also, the vapor pressure entry in series [4] (35° C.) is given as “about 0.041 MPa”. Moreover, the vapor pressure result in series [4] (45° C.) is reported as “about 0.061 MPa”.
